Where no end group is shown, it is not given here.
Tests used:
EV71 virus = experiment: Virus internalization assay (q-RT-PCR, immunoblotting); type: cell-based, enterovirus 71 (EV71); details: 1.5 μM peptide (q-RT-PCR, MOI = 1) or 3 μM (immunoblotting, MOI = 10); RD cells 4°C 1 hr then 37°C 1 hr
Description: Fig 3 LL-18 and FF-18 inhibit viral attachment and internalization. (A) EV71 virus (MOI = 1) was pre-incubated with 1.5 μM LL-18, FF-18 or 12 μM 12s before they were used to incubate with RD cells at 4°C for 1 hr. Viral RNA was then determined with q-RT-PCR. Values are normalized to vehicle treated cells. ***, P<0.001. (B) EV71 virus (MOI = 1) was pre-incubated with 1.5 μM LL-18, FF-18 or 12 μM 12s before they were used to incubate with RD cells at 4°C for 1 hr followed by 37°C incubation for 1 hr. Viral RNA was then determined with q-RT-PCR. Values are normalized to vehicle treated cells. ***, P<0.001. (C) Diagram of EV71 subgenomic replicon. […] (D) RD cells transfected with EV71 SGR RNA were treated with 1.5 μM LL-18 or FF-18 for 3 hrs (left panel) or 6 hrs (right panel) before luciferase activity was measured. ns, not significant.
Viral binding and internalization assays were performed as previously described. […] Cells were then washed extensively with ice-cold PBS, and the viruses retained were analyzed with real-time PCR. […]
Supplementary file ppat.1011967.s002.tif: S2 Fig LL-18 and FF-18 inhibit viral attachment and internalization. […] Cells were then washed extensively and kept cultured for 24 hrs before viral VP1 expression was determined with immunoblotting. […] Cells were then washed extensively and kept cultured for 24 hrs before viral VP1 expression was determined with immunoblotting. […]

RD cells = experiment: Cytotoxicity of peptides on RD cells (Cell Titer-Glo); type: cell-based, human; details: cell viability plotted against peptide concentration, Cell Titer-Glo (S1A-S1D Fig)
Description: To test whether Cathelicidin peptide (LL-37) and its analogues could inhibit enterovirus infection, we conducted viral infection inhibition test on RD cells, which are one of the most commonly used cells for enterovirus propagation. We first assessed the cytotoxicity of LL-37, LL-18, FF-18, and a short form of LL-37 (DL-37) (Fig 1A), and all the peptides tested have a CC50 over 50 μM (S1A–S1D Fig). We then chose lower concentrations to test their antiviral activity. […] In addition, EV71 infection could cause cytopathic effect (CPE) on RD cells, and peptide could rescue EV71-induced cell death as assayed by crystal violet staining (Fig 1E) or cellular ATP content measurement (Fig 1F).
Cell viability assays were carried out using the Cell Titer-Glo Luminescent Cell Viability Assay Kit (Promega, Madison, WI) following the manufacturer’s instructions. Luminescence signals were measured using a BioTek Neo2 microplate reader.
(A-D) Cell viability of RD cells treated with the indicated amount of DL-37 (A), LL-37 (B), LL-18 (C), or FF-18 (D) was plotted against peptide concentration, and the cytotoxicity was determined. (E) EV71 virus pre-incubated with indicated amounts of DL-37, and the cell viability was determined 24 h.p.i. ***, P<0.001. (F-G) CVB5 (F) or Echo7 (G) virus pre-incubated with 0.3, 0.9, or 1.5 μM of peptides were used to infect RD cells. Cell viability was determined 24 h.p.i. ***, P<0.001. (H-I) CVB5 (H) or Echo7 (I) virus pre-incubated with 3, 6, or 12 μM of peptides were used to infect RD cells. Cell viability was determined 24 h.p.i. ***, P<0.001. (TIF) Click here for additional data file.

EV71 P30 virus = experiment: Resistance induction assay (30 passages); type: cell-based, enterovirus 71 (EV71); details: 20 passages at 0.9 μM then 10 at 1.5 μM LL-18; 1.5 μM LL-18 pre-incubation 1 h, RD cell viability 24 h.p.i
Description: (A) Diagram of resistance induction assay. (B) RD cells infected with parental EV71 or P30 with or without 1.5 μM LL-18 pre-incubation were tested for cell viability 24 h.p.i. ns, not significant; ***, P<0.001.
Resistance induction assay was conducted as previously reported. Briefly, virus was first successively passaged in RD cells for 20 generations in the presence of a lower concentration of LL-18 (0.9 μM). The progeny virus was then passaged for another 10 generations with 1.5 μM LL-18, and the progeny virus was designated as P30. The parental EV71 and P30 with the same titer were pre-incubated with 1.5 μM LL-18 for 1 h and then tested for cell viability 24 h.p.i.

EV71 virions = experiment: Viral particle stability thermal release assay (PaSTRY); set-up: species or system enterovirus 71 (EV71); details: EV71 MOI = 10 pre-incubated with LL-18 or NaCl, SYBR green II, heated 25°C to 80°C; PBS control around 45°C
Description: Fig 6 LL-18 stabilizes the viral particles by inhibiting uncoating. (A) EV71 virus (MOI = 10) was pre-incubated with PBS, indicated amount of LL-18 or NaCl for 1 hr and then mixed with SYBR green dyes II before they were heated to indicated temperatures. The fluorescent signals were measured and plotted against temperature. PBS was used as a negative control. (B) EV71 virus (MOI = 10) was pre-incubated with PBS, LL-18, or 12s for 2 hrs. Half of the samples were then treated with 1.5 μg SCARB2 protein and incubated at 37°C for 2 hrs at pH 5.5. Samples were then subjected to ultracentrifugation as detailed in materials and methods. The numbers above represent the fractions collected from top to bottom.
EV71 viruses were preincubated with either PBS, NaCl or the indicated amount of LL-18 at room temperature for 2 hrs, before Sybr green II dye (3× working concentration, Solarbio, China) and RNase inhibitor (1 U/μL, Thermo Scientific) were added. The mixture was heated from 25°C to 80°C with an increment of 0.5°C for 30 seconds, and the fluorescence from SYBR green was monitored with a QuantGene 9600 real-time PCR system (Bioer, China).

Sequence | inhibition of EV71 internalization (EV71 virus) | CC50 (RD cells) | susceptibility of P30 virus to LL-18 (EV71 P30 virus) | temperature of peak SYBR green fluorescence intensity (RNA release) (EV71 virions) [°C]
FRKSKEKIGKLFKRIVQRILDFLRNLV [LL-18] | strong inhibition | over 50 μM | still as susceptible to LL-18 as the parental virus | 53
FRKSKEKIGKFFKRIVQRIFDFLRNLV [FF-18] | strong inhibition | over 50 μM |  | 
